From patent US20120165354A1, “TREATMENT METHOD” (GLAXO WELLCOME MANUFACTURING PTE LTD., priority 2009, published 2012)
Counter-ions that a name gives are not always drawn.

Key:
[1] = test system: subjects with occult or minimally classic subtypes of choroidal neovascularization due to AMD; experiment: Optical coherence tomography central retinal thickness (OCT CRT/CRLT) in AMD patients, 28-day eye-drop study; format: in vivo, human
Protocol: (§1) Three dosing regimens of pazopanib monohydrochloride eye drops (5 mg/mL TID, 2 mg/mL TID, 5 mg/mL QD) were administered for 28 days to 70 subjects with occult or minimally classic subtypes of choroidal neovascularization due to AMD. This study was designed to measure pharmacological activity of topically administered pazopanib in target tissues (choroid and retina) of patients with AMD by weekly evaluation of central retinal lesion thickness as measured by optical coherence tomography (OCT). In addition, the ocular and systemic safety and systemic pharmacokinetics of pazopanib treatment for 28 days were evaluated. Evaluation of efficacy was performed on an exploratory basis by weekly measurement of visual acuity, performing best-corrected visual acuity assessments at screening and day 29.
(§2) Of the total of 70 subjects that were randomized, 28 had been previously treated with anti-angiogenic agents for treatment of macular degeneration and 42 were treatment-naïve. The protocol excluded subjects who had received any treatment for AMD within 60 days of the first dose of study medication in this trial. A total of 68 subjects completed all study assessments, of which 63 completed the assessments of Day 29 visit without receiving any rescue medication. 6 subjects received anti-VEGF rescue medication prior to the Day 29 assessment (1 of 27 in the 5 mg/ml TID arm, 2 of 27 in the 2 mg/ml TID, 3 of 16 subjects in the 5 mg QD arm, which was discontinued per protocol amendment due to feasibility.) Baseline characteristics in the study were similar between treatment groups, with the exception of age and lesion size, which were increased in the 2 mg/ml TID arm.
Sites were certified by a central reading center to collect images to assess Central Retinal Thickness (CRT, subretinal fluid) and Central Retinal Lesion Thickness (CRLT, subretinal fluid and neovascular lesion) on a Stratus OCT 3 instrument weekly. Values were then determined by manual measurement at the reading center. As used herein, “OCT CRLT” means optical coherence tomography central retinal/lesion thickness as determined by manual measurement of the distance between the inner and outer retina, inclusive of subretinal fluid and any choroidal neovascularization (CNV) as measured in the central 1 mm area of the 7 mm posterior pole scan. As used herein, “OCT CRT” means optical coherence tomography central retinal thickness as determined by manual measurement of the distance between the inner and outer retina inclusive of any subretinal fluid as measured in the central 1 mm area of the 7 mm posterior pole scan.

[2] = test system: subjects with occult or minimally classic subtypes of choroidal neovascularization due to AMD; experiment: Best-corrected visual acuity (BCVA, ETDRS/AREDS procedure) in AMD patients, 28-day eye-drop study; format: in vivo, human; details: for Change from Baseline in BCVA Day 29, Point Estimate: Overall
Protocol: as §1, §2
Sites were trained and certified for visual acuity assessment with the standard procedure developed for the Early Treatment Diabetic Retinopathy Study (ETDRS) and adapted for the Age Related Eye Disease Study (AREDS). Best-corrected visual acuity (BCVA) measurements were performed at screening and Day 29 visits and, at other visits, use of the previous refraction for the visual acuity (VA) assessment was allowed.

Cc1ccc(Nc2nccc(N(C)c3ccc4c(C)n(C)nc4c3)n2)cc1S(N)(=O)=O [pazopanib monohydrochloride, 5-[[4-[(2,3-dimethyl-2H-indazol-6-yl)methylamino]-2-pyrimidinyl]amino]-2-methylbenzenesulfonamide monohydrochloride]
Change from Baseline in Central Retinal Thickness at Day 29, CRT LSMean ([1]; 2 mg/ml TID eye drops, CFH genotype CC, N=3): 22.15 | Change from Baseline in Central Retinal Thickness at Day 29, CRT LSMean ([1]; 2 mg/ml TID eye drops, CFH genotype CT, N=10): −14.6 | Change from Baseline in Central Retinal Thickness at Day 29, CRT LSMean ([1]; 2 mg/ml TID eye drops, CFH genotype TT, N=4): −45.5 | Change from Baseline in Central Retinal Thickness at Day 29, CRT LSMean ([1]; 5 mg/ml TID eye drops, CFH genotype CC, N=7): 9.23 | Change from Baseline in Central Retinal Thickness at Day 29, CRT LSMean ([1]; 5 mg/ml TID eye drops, CFH genotype CT, N=9): 21.51 | Change from Baseline in Central Retinal Thickness at Day 29, CRT LSMean ([1]; 5 mg/ml TID eye drops, CFH genotype TT, N=5): −88.8 | mean decrease in CRT ([1]; day 29, subjects with the CFH TT genotype, 5 mg/ml TID, statistically significant): 89 micron | changes from baseline in OCT CRT / CRLT ([1]; overall population): no statistically significant changes from baseline | Change from Baseline BCVA at Day 29, BCVA LSMean (SE) ([2]; 2 mg/ml TID, CFH Y402H genotype CC, N=3): 0.85 (4.07) | Change from Baseline BCVA at Day 29, BCVA LSMean (SE) ([2]; 2 mg/ml TID, CFH Y402H genotype CT, N=10): −1.52 (2.24) | Change from Baseline BCVA at Day 29, BCVA LSMean (SE) ([2]; 2 mg/ml TID, CFH Y402H genotype TT, N=4): 5.43 (3.60) | change in visual acuity ([2]; 5 mg/ml TID group only, enhanced in previously treated group and those with a T allele): Statistically significant increases | Change from Baseline BCVA at Day 29, BCVA LSMean (SE) ([2]; 5 mg/ml TID, CFH Y402H genotype CC, N=7): 0.36 (2.68) | Change from Baseline BCVA at Day 29, BCVA LSMean (SE) ([2]; 5 mg/ml TID, CFH Y402H genotype CT, N=9): 4.09 (2.38) | Change from Baseline BCVA at Day 29, BCVA LSMean (SE) ([2]; 5 mg/ml TID, CFH Y402H genotype TT, N=5): 6.96 (3.18) | Change from Baseline in BCVA at Day 29, Point Estimate ([2]; Naïve Subjects, 2 mg/mL TID): 1.16 | Change from Baseline in BCVA at Day 29, Point Estimate ([2]; Naïve Subjects, 5 mg/mL TID): 3.38 | Change from Baseline in BCVA at Day 29, Point Estimate ([2]; Naïve Subjects, 5 mg/mL once daily): 0.80 | Change from Baseline in BCVA Day 29, Point Estimate ([2]; 2 mg/mL TID): 0.76 | Change from Baseline in BCVA Day 29, Point Estimate ([2]; 5 mg/mL QD): 0.09 | Change from Baseline in BCVA Day 29, Point Estimate ([2]; 5 mg/mL TID): 4.32 | Change from Baseline in BCVA at Day 29, Point Estimate ([2]; Previously Treated Subjects, 2 mg/mL TID): 0.18 | Change from Baseline in BCVA at Day 29, Point Estimate ([2]; Previously Treated Subjects, 5 mg/mL TID): 5.61 | Change from Baseline in BCVA at Day 29, Point Estimate ([2]; Previously Treated Subjects, 5 mg/mL once daily): −0.80
